Reference: patent publication US20100215759A1 (priority 2009, published 2010)

How the values were obtained:
old DBA/2J mice = test: Reduction of intraocular pressure (IOP) after application to the eye, TONOLab tonometer; format: in vivo; settings: for Intraocular Pressure Decrease: versus basal IOP
Excerpt: The main risk factor in the glaucoma is represented by the high intraocular pressure (IOP). See for instance: Libby R. T. et al., Vis Neurosci. 2005 Sep.-Oct., 22(5):637-48 and Tomida I. et al., Br. J. Opthalmol. 2004 May, 88(5):708-13.
By using the animal model of old DBA/2J mice (see above) it has been evaluated the efficacy of the compound obtained in example 3.1 in reducing the IOP. As said, this compound has a good affinity towards the CB1 receptors in vitro (example 4) and a CB1 agonist action in vivo (example 5). The intraocular pressure has been determined by a TONOLab Tonometer (Tiolat Oy), as reported by M. E. Pease et al. in J. Glaucoma, 2006 December, 15(6):512-519. The compound was dispersed in the commercial emulsion Tocrisolve™, (Tocris), at a concentration of […] and applied to the eye of old DBA/2J mice (8-10 month age; basal IOP comprised between 19.0 and 22.5 mmHg). The applied emulsion volumes were such that the compound doses resulted, respectively, of 100 μg or 50 μg. WIN 55212-2 was dispersed in Tocrisolve™at the concentration of 5 mg/ml and was the reference cannabinoidergic compound. The determination of the ocular pressure was carried out every 30 minutes up to two hours starting from the administration. The obtained results (average of 6 measurements at each time for experimental groups of 8-10 animals for group/dose) are reported in Table 3. IOP decrease was expressed in percent with respect to the basal value.

[1] = system: mouse deferent vessel (vas deferens); test: Ex-vivo model: electrically induced contractions of the isolated deferent vessel (vas deferens); parameters: species or system albino CD1 mice; settings: for Effect on the curve % of inhibition of the contractions/logarithm of the WIN 55212-2 concentration: concentrations lower than or equal to 1×10^−5 M; for Inhibition of the contractions induced by the electric stimulus: concentrations lower than or equal to 1×10^−6 M
Excerpt: The use of the isolated deferent vessel organ, as a highly sensitive basic system in an ex-vivo model for evaluating the activity of agonist CB1 compounds, has been described by Pertwee et al. in Br. J. Pharmacol., 105:980-4, 1992. This model has been used also to evaluate the properties of antagonist CB1 compounds and to distinguish antagonist CB1 derivatives from inverse agonist CB1 compounds (Rinaldi-Carmona et al., FEBS Lett., 350:240-4, 1994; Pertwee et al., Eur. J. Pharmacol., 456:99-106, 2002). […] This effect is correlated to the action on the prejunctional neuronal CB1 receptors with the consequent release inhibition, induced by electric stimuli, of contractile neurotransmitters (noradrenaline and ATP) (Schlicker and Kathmann, Trends Pharmacol. Sci., 22:565-72, 2001). The inhibition of the contractions induced by the electric stimulus on the deferent vessel in the presence of agonist (or partial agonist) CB1 compounds are expressed as % of contraction inhibition. Said % contraction inhibition is calculated by the ratio between the contraction amplitude determined in the presence of a given concentration of the compound and that detected in its absence (basal value). The curve of the “% of contraction inhibition” as a function of the logarithm of the concentration of agonist (or partial agonist) CB1 compounds, is sigmoidal. The use of the model for the evaluation of antagonist CB1 compounds is based on the evaluation of their efficacy in inhibiting the action of the deferent vessel of agonist (or partial agonist) CB1 compounds. The inhibition is expressed by a shifting towards the right of the curves % of inhibition of contractions/logarithm of the concentration of the agonist CB1 compound, with increasing the concentration of the antagonist CB1 compound.
As reported in the literature, the experimentation has been carried out by using albino CD1 mice weighing 30-40 grams. The mice deferent vessel was recovered and transferred into an instrument for separated organs supplied by the Firm Ugo Basile (Comerio, Italy). The initial tension was of 0.5 g. The procedure adopted is reported in Pertwee et al. in Br. J. Pharmacol., 110:1483-1490, 1993. In particular the procedure and instruments as described by S. Ruiu et al. in J.P.E.T., Vol. 306, 2003, 363-370, have been used.
In a subsequent experiment it was shown that the compound activity was antagonized by the antagonist CB1 compound N-piperidinyl-[8-chloro-1-(2,4-dichlorophenyl)-1,4,5,6-tetrahydrobenzo[6,7]cyclohepta[1,2-c]pyrazol-3-carboxamide], described by S. Ruiu et al. in J.P.E.T., Vol. 306, 2003, 363-370. The experiment was carried out by adding the antagonist (concentration in bath 1 nM) 20 minutes before the first addition of the compound of the invention.

[2] = 50 μg to the eye in Tocrisolve, 30 minutes
[3] = 50 μg to the eye in Tocrisolve, 60 minutes
[4] = 50 μg to the eye in Tocrisolve, 90 minutes
[5] = 50 μg to the eye in Tocrisolve, 120 minutes
[6] = 100 μg to the eye in Tocrisolve, 30 minutes
[7] = 100 μg to the eye in Tocrisolve, 60 minutes
[8] = 100 μg to the eye in Tocrisolve, 90 minutes
[9] = 100 μg to the eye in Tocrisolve, 120 minutes

| Structure (SMILES) | Intraocular Pressure Decrease (old DBA/2J mice; [2]) [%] | Intraocular Pressure Decrease (old DBA/2J mice; [3]) [%] | Intraocular Pressure Decrease (old DBA/2J mice; [4]) [%] | Intraocular Pressure Decrease (old DBA/2J mice; [5]) [%] | Intraocular Pressure Decrease (old DBA/2J mice; [6]) [%] | Intraocular Pressure Decrease (old DBA/2J mice; [7]) [%] | Intraocular Pressure Decrease (old DBA/2J mice; [8]) [%] | Intraocular Pressure Decrease (old DBA/2J mice; [9]) [%] | Reduction of intraocular pressure (old DBA/2J mice; dose 50 μg) | Reduction of intraocular pressure (old DBA/2J mice; dose 100 μg) | Effect on the curve % of inhibition of the contractions/logarithm of the WIN 55212-2 concentration [1] | Inhibition of the contractions induced by the electric stimulus [1] | Antagonism of the compound activity by a CB1 antagonist ([1]; antagonist N-piperidinyl-[8-chloro-1-(2,4-dichlorophenyl)-1,4,5,6-tetrahydrobenzo[6,7]cyclohepta[1,2-c]pyrazol-3-carboxamide] 1 nM in bath, added 20 minutes before) | Functional character at CB1 ([1]; vas deferens model) |
| --- | --- | --- | --- | --- | --- | --- | --- | --- | --- | --- | --- | --- | --- | --- |
| CCOC(=O)c1nn(-c2ccc(S(N)(=O)=O)cc2)c2c1CCc1sccc1-2 [Compound (XA), 1-(4′-sulphonamidophenyl)-4,5-dihydro-1H-thieno[2,3-g]indazol-3-ethyl carboxylate] | −0.3 | −0.2 | 0.0 | −0.1 | 0.0 | −0.2 | −0.1 | 0.1 | not able to significantly reduce the intraocular pressure | not able to significantly reduce the intraocular pressure | did not significantly modify the slope of the curve | did not significantly inhibit the contractions | – | – |
| NC(=O)c1nn(-c2ccc(S(N)(=O)=O)cc2)c2c1CCc1sccc1-2 [Compound (XB), 1-(4′-sulphonamidophenyl)-4,5-dihydro-1H-thieno[2,3-g]indazol-3-carboxamide] | −0.2 | −0.1 | 0.0 | −0.1 | −0.1 | 0.4 | −0.3 | 0.0 | not able to significantly reduce the intraocular pressure | not able to significantly reduce the intraocular pressure | did not significantly modify the slope of the curve | did not significantly inhibit the contractions | – | – |
| Cc1ccc(Cn2nc(C(=O)NCC3CCC4CC3C4(C)C)c3c2-c2sc(C)cc2C3)cc1 (stereo not drawn) [Example 3.1, N-myrtanyl-6-methyl-1-(4′-methylbenzyl)-1,4-dihydrothieno[3′,2′:4,5]cyclopenta[1,2-c]pyrazol-3-carboxamide] | 15.9 | 15.0 | 12.6 | 11.7 | 23.9 | 22.8 | 19.6 | 21.7 | more effective in reducing IOP than the reference compound | as effective to reduce eye pressure as the reference compound WIN 55212-2 | – | – | antagonized | CB1 agonist |
